Here are results for 20 molecules from patent US10533231B2, “Artificial bioluminescent enzyme” (NATIONAL INSTITUTE OF ADVANCED INDUSTRIAL SCIENCE AND …, priority 2012, dated 2020).

B1: ALuc15: artificial luciferase, SEQ ID NO: 12 (protein)
chain: MMGIKVLFALICFALVQANPTENKDDIDIVGVEGKFGTTDLETDLFTIVEDMNVISRDTDVDANRADRGKLPGKKLPLEVLKELEANAQKAGCTRGCLICLSHIKCTAKMKKWLPGRCESWEGDKETGQGGIGEAIVDIPEIPGFKDLEPMEQFIAQVDLCVDCTTGCLKGLANVKCSDLLKKWLPSRCATFASKIQAQVDKIKGAGGS
modifications: Synthetic ALuc15
B2: ALuc10: artificial luciferase, SEQ ID NO: 11 (protein)
chain: B1 chain with G3E, K5Q, D60N, V61L, D62A, A63N, N64S, R65D
modifications: Synthetic ALuc10
B3: ALuc18: artificial luciferase, SEQ ID NO: 14 (protein)
chain: MMGIKVLFALICFALVQANPTENKDDIDIVGVEGKFGTTDLETDLFTIVEDMNVISRDTDVDANRADRGRRGHGGLPGKKMPLEVLLELEANAQRAGCTRGCLICLSKIKCTAKMKKWLPGRCESWAGDKETGQGGITEEETVDIPEIPGFKDLEPMEQFIAQVDLCVDCTTGCLKGLANVKCSDLLKKWLPSRCATFASKIQAQVDKIKGAGGS
modifications: Synthetic ALuc18
B4: ALuc21: artificial luciferase, SEQ ID NO: 26 (protein)
chain: MMGIKVLFALICFALVQANATINEEDIDLVAIGGSFATTDLETDLFTIVEDMNVISRDTDVDANRADRGRRGKLPGKKLPLEVLKELEANAQKAGCTRGCLICLSHIKCTAKMKKWLPGRCESWEGDKETGQGGIGEAIVDIPEIPGFKDLEPMEQFIAQVDLCVDCTTGCLKGLANVKCSDLLKKWLPSRCATFASKIQAQVDKIKGAGGS
modifications: Synthetic ALuc21
B5: ALuc26: artificial luciferase, SEQ ID NO: 28 (protein)
chain: MMGVKLIFAVLCVAVAQANATINENFEDIDLVAIGGSFADLETDLFTIVEDMNVISRDTDVDANRGGRGRRGKLPGKKLPLEVLKELEANAQKAGCTRGCLICLSHIKCTAKMKKWLPGRCESWEGDKETGQGGIGEAIVDIPEIPGFKNLAPMEQFIAQVDLCADCTTGCLKGLANVKCSNLLKKWLPSRCAGFANKIQAQVDTIKGLGGS
modifications: Synthetic Aluc26
B6: ALuc29: artificial luciferase, SEQ ID NO: 31 (protein)
chain: B5 chain with N150W, K179W, N182W, N197W
modifications: Synthetic ALuc29
B7: ALuc27: artificial luciferase, SEQ ID NO: 29 (protein)
chain: B5 chain with N150F, K179F, N182F, N197F
modifications: Synthetic ALuc27
B8: ALuc28: artificial luciferase, SEQ ID NO: 30 (protein)
chain: B5 chain with N150Y, K179Y, N182Y, N197Y
modifications: Synthetic ALuc28
B9: ALuc17: artificial luciferase, SEQ ID NO: 24 (protein)
chain: MMGIKVLFALICFALVQANPTENKDDIDIVGVEGKFGTTDLETDLFTIVEDMNVISRDTDVDANRADRGRRGKMPGKKLPKAVLIELEANAQKAGCHRGCLICLSHIKCTAKMKEWLPGRCESWGGDKETGQAGIVGAIVDIPEIPGFKDLEPMEQFIAQVDLCVDCTTGCLKGLANVKCSDLLKKWLPSRCATFASKIQAQVDKIKGAGGS
modifications: Synthetic ALuc17
B10: ALuc19: artificial luciferase, SEQ ID NO: 25 (protein)
chain: MMGIKVLFALICFALVQANPTENKDDIDIVGVEGKFGTTDLETDLFTIVEDMNVISRDTDVDANRADRGRRGRKLPGKKLPKEVLKILEANAQRAGCHRGCLICLSHIKCTAKMKQWLPGRCESWEGDKETGQGGIGGPIVDIGVLGPEIPGFKDLEPMEQFIAQVDLCVDCTTGCLKGLANVKCSDLLKKWLPSRCATFASKIQAQVDKIKGAGGS
modifications: Synthetic ALuc19

Where a chain is given by its changes, count along the chain named.

The first test concerns COS-7 cells. Description: Comparison of luminescence intensity of ALucs (Example 1-2). Format: cell-based, African green monkey. The following applies: COS-7 cultured overnight, Promega assay solution, LAS-4000. An excerpt: The artificial luciferase (ALuc) genes synthesized by the above process were subcloned into mammalian cell expression vectors (pcDNA3.1 (+)). Each expression vector was transfected with African green monkey kidney-derived COS-7 cells, and the luminescence intensity, luminescence stability, and red-shifted degree of artificial luciferases (ALucs) were compared (FIGS. 2 to 5).
First, the luminescence intensity of artificial luciferases (ALucs) was compared (FIG. 2). For the comparison, COS-7 cells containing a vector encoding each luciferase were cultured overnight, and then the relative luminescence intensity was measured by using an assay solution, which is a mixture of a cell lysis solution and a substrate, produced by Promega, and a luminescence image analyzer (LAS-4000).
Turning to B1, the “luminescence intensity higher than that of conventional GLuc, Renilla luciferase and MpLuc4” value is “about 50 folds”. On the same count and under the same terms, then B2, with “about 50 folds”. In the case of B3, the “luminescence intensity higher than that of conventional GLuc, Renilla luciferase and MpLuc4” value is on record as “about 50 folds”.

The next test concerns artificial luciferase (ALuc). Description: Effects of heavy metal ions as additive for assay buffer (Example 2-3). Format: cell-based. To be noted: 1 ppm in HBSS buffer after C3 lysis. As for the experimental part: This example examined the effects of a heavy metal ion as an additive for an assay buffer (FIG. 25). […] After 16-hour incubation in a CO2 incubator, 50 μL of a C3 solution was added to each well to allow for cell lysis for 20 minutes. 1 ppm of each type of heavy metal ion shown in FIG. 25 and 50 μL of a substrate-containing HBSS buffer were added to the lysate simultaneously, and the relative luminescence intensities were immediately measured with an LAS-4000. After the substrate-containing assay buffer was further added, the luminescence at the 8- and 16-minute point was measured to examine the luminescence stability.
Regarding `[Mg+2]` [Mg(II)], the “effect of heavy metal additive on luminescence intensity” value (shortened to “effect of heavy metal additive”) is “suitable to be added to C3 and HBSS”.

`[Mo]` [Mo(VI)]: the “comprehensive evaluation of luminescence intensity and stability” value (“comprehensive evaluation” for short) is given as “excellent additives”.

Consider `[Zn+2]` [Zn(II)], for which the “comprehensive evaluation” value was “excellent additives”. On to `[Co+2]` [Co(II)], for which the “effect of heavy metal additive” value is listed as “significantly decrease the luminescence intensity”. With `[Fe+3]` [Fe(III)], the “comprehensive evaluation” value is “excellent additives”; the “effect of heavy metal additive” value was “suitable to be added to C3 and HBSS”.

Take `[Cu+2]` [Cu(II)]: the “comprehensive evaluation” value is reported as “excellent additives”; the “effect of heavy metal additive” value is “suitable to be added to C3 and HBSS”. In the case of `[Ca+2]` [Ca(II)], the “effect of heavy metal additive” value is “suitable to be added to C3 and HBSS”.

As for `[Ni+2]` [Ni(II)], the “effect of heavy metal additive” value was “significantly decrease the luminescence intensity”.

For the molecule `[Al+3]` [Al(III)], the “comprehensive evaluation” value is given as “excellent additives”; the “effect of heavy metal additive” value is “suitable to be added to C3 and HBSS”. In the case of `[Cd+2]` [Cd(II)], the “effect of heavy metal additive” value was “significantly decrease the luminescence intensity”.

The subject of another test is COS-7 cells. Nature of the test: Enzymatic activity confirmation of ALuc (section 3-1, 3-2). The class given is cell-based, African monkey. To be noted: vs conventional copepod luciferases. As for the experimental part: First, using a known lipid reagent for gene introduction, an expression vector encoding ALuc is introduced into African monkey-derived COS-7 cells; as a control, an expression vector having a known GLuc without any mutation into the cells is also introduced in the same manner. At a predetermined time (from 10 to 20 hours, for example, 16 hours) after the introduction of the vector, a cell lysate is prepared using a known lysis reagent.
Thereafter, the cell lysate is mixed with a known substrate solution containing coelenterazine, and its color intensity, temporal stability in luminescence, etc., are measured.
The luminescence intensity may be found by measuring the intensity at a specific wavelength using a known luminescence spectrophotometer after addition of a known substrate. By performing the measurement every minute, the temporal stability in luminescence can be evaluated. To measure a shift to a longer wavelength, scanning of the entire wavelength is necessary.
With B4, the “luminescence stability (general statement)” value (shortened to “luminescence stability”) is recorded as “remarkably stable luminescence signals”. The same measure, in the same setting: then B5, with “remarkably stable luminescence signals”; and B6, with “remarkably stable luminescence signals”.

With B7, the “luminescence stability” value is listed as “remarkably stable luminescence signals”.

As to B8, the “luminescence stability” value is given as “remarkably stable luminescence signals”. Turning to B9, the “luminescence stability” value is “remarkably stable luminescence signals”.

B1: the “luminescence stability” value was “remarkably stable luminescence signals”. On the same count and under the same terms, then B3, with “remarkably stable luminescence signals”.

With B10, the “luminescence stability” value is “remarkably stable luminescence signals”.
